{"source": "patent US12371454B2", "about": "“Cyclic peptide compound having Kras inhibitory action” (priority 2019, dated 2025)", "note": "Starred links: 1 amine or outer side, 2 acyl side, 3 side chain; linkers in the order of their positions; H or OH if unused. Positions of bridges follow the written chain, without caps; N, C: chain ends. Non-standard residues stand in square brackets, D forms with d. Residues, ends and D or L forms follow the SMILES beside them. *: point of attachment. hPhe(3-Cl-4-CF3) = N[C@@H](CCc1ccc(C(F)(F)F)c(Cl)c1)C(=O)O; X63 = O=C(C(CCc1ccc(C(F)(F)F)c(Cl)c1)N[*:1])[*:2]; NMePhe(4-Cl) = CN[C@@H](Cc1ccc(Cl)cc1)C(=O)O; NMePhe(4-Me) = CN[C@@H](Cc1ccc(C)cc1)C(=O)O; hPhe(4-Cl) = N[C@@H](CCc1ccc(Cl)cc1)C(=O)O; NMeAla(cPent) = CN[C@@H](CC1CCCC1)C(=O)O; NMePhe(2-F) = CN[C@@H](Cc1ccccc1F)C(=O)O; NMeGly(cPent) = CN[C@H](C(=O)O)C1CCCC1; Phe(3-I) = N[C@@H](Cc1cccc(I)c1)C(=O)O; X64 = CN(C)CCOCCN(CC(=O)[*:2])[*:1]; NMeCha = CN[C@@H](CC1CCCCC1)C(=O)O; NMeI = CC[C@H](C)[C@H](NC)C(=O)O; hPhe = N[C@@H](CCc1ccccc1)C(=O)O; NMeD = CN[C@@H](CC(=O)O)C(=O)O; NMeL = CN[C@@H](CC(C)C)C(=O)O; NMeV = CN[C@H](C(=O)O)C(C)C; d(β3hA) = C[C@@H](N)CC(=O)O; dPip = O=C(O)[C@H]1CCCCN1; NMeA = CN[C@@H](C)C(=O)O; NMeAib = CNC(C)(C)C(=O)O; Nle = CCCC[C@H](N)C(=O)O; Piperidide = C1CCN(*)CC1; Pyrrolidide = C1CCN(*)C1; dNMeA = CN[C@H](C)C(=O)O; Ac5c = NC1(C(=O)O)CCCC1; Aze = O=C(O)[C@@H]1CCN1; Ac4c = NC1(C(=O)O)CCC1; Sar = CNCC(=O)O", "data": [{"target": "T1, Kras and SOS1 (biotin-tagged human Kras loaded with GDP, His-tagged human SOS1) (Homo sapiens, UniProt P01116, G12D)", "T1 construct": "made in house; host or cells: E. coli (stated for Kras only)", "T1 sequence (P01116 1-188 isoform P01116-2 G12D)": "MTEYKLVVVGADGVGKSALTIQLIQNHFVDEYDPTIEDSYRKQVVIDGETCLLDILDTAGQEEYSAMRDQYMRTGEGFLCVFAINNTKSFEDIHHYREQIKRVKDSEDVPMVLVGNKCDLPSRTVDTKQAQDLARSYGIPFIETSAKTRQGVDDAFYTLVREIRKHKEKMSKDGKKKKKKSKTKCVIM", "assay": "Protein-protein interaction inhibition between Kras and SOS1 (KrasGl2D-SOS PPI) using AlphaScreen", "assay_type": "binding", "settings": "AlphaScreen; biotin-tagged human Kras loaded with GDP, His-tagged human SOS1; read-out: KRAS G12D-SOS PPI IC50", "summary_of_the_method": "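Donor beads (nickel) hold His-SOS1; acceptor beads (streptavidin) hold biotin-Kras bound to GDP. Signal measured at 520-620 nm following 680 nm excitation.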", "units": {"IC50": "nM"}, "values": [{"smiles": "CC[C@H](C)[C@@H]1NC(=O)[C@H](CC(C)C)N(C)C(=O)C[C@@H](C(=O)N(C)C)N(C)C(=O)[C@H]([C@@H](C)CC)N(C)C(=O)C2(CCCC2)NC(=O)CN(CCOCCN(C)C)C(=O)C(CCc2ccc(C(F)(F)F)c(Cl)c2)NC(=O)CN(C)C(=O)[C@H](Cc2ccc(C)cc2)N(C)C(=O)[C@@H]2CCN2C(=O)[C@H](C)N(C)C1=O", "note": "(stereo partly drawn) [Compound 2181, (3S,6S,9S,13S,16S,31S,34S)-25-[2-[3-chloro-4-(trifluoromethyl)phenyl]ethyl]-23-[2-[2-(dimethylamino)ethoxy]ethyl]-9-isobutyl-N,N,3,4,10,14,17,29,32-nonamethyl-6,16-bis[(1S)-1-methylpropyl]-2,5,8,11,15,18,21,24,27,30,33-undecaoxo-31-(p-tolylmethyl)spiro[1,4,7,10,14,17,20,23,26,29,32-undecazabicyclo[32.2.0]hexatriacontane-19,1′-cyclopentane]-13-carboxamide] ([NMeL]I[NMeA][Aze][NMePhe(4-Me)][Sar][X63][X64][Ac5c][NMeI][NMeD]-NMe2; lactam N-11)", "IC50": 5.5}, {"smiles": "CC[C@H](C)[C@@H]1NC(=O)[C@H](C)N(C)C(=O)C[C@@H](C(=O)N2CCCCC2)N(C)C(=O)[C@H](C(C)C)N(C)C(=O)C2(CCCC2)NC(=O)[C@@H]2CCCN2C(=O)[C@H](CCc2ccc(C(F)(F)F)c(Cl)c2)NC(=O)[C@H]2CCCCN2C(=O)[C@H](CC2CCCCC2)N(C)C(=O)[C@@H]2CCN2C(=O)CN(C)C1=O", "note": "[Compound 553] ([NMeA]I[Sar][Aze][NMeCha][dPip][hPhe(3-Cl-4-CF3)]P[Ac5c][NMeV][NMeD]-Piperidide; lactam N-11)", "IC50": 27}, {"smiles": "CC[C@H](C)[C@@H]1NC(=O)[C@H](C)N(C)C(=O)C[C@@H](C)NC(=O)[C@H](C2CCCC2)N(C)C(=O)C2(CCC2)NC(=O)[C@@H]2CCCN2C(=O)[C@H](CCc2ccc(C(F)(F)F)c(Cl)c2)NC(=O)CN(C)C(=O)[C@H](CC2CCCCC2)N(C)C(=O)CN(C)C(=O)CN(C)C1=O", "note": "[Compound 1506] (cyclo([Ac4c][NMeGly(cPent)][d(β3hA)][NMeA]I[Sar][Sar][NMeCha][Sar][hPhe(3-Cl-4-CF3)]P))", "IC50": 2.9}, {"smiles": "CCCC[C@@H]1NC(=O)[C@H](Cc2cccc(I)c2)NC(=O)CN(C)C(=O)[C@H](Cc2ccc(Cl)cc2)N(C)C(=O)CN(C)C(=O)CN(C)C(=O)[C@H]([C@@H](C)CC)NC(=O)[C@H](CC(C)C)N(C)C(=O)C[C@@H](C(=O)N2CCCC2)N(C)C(=O)[C@H](CCc2ccccc2)NC(=O)C(C)(C)N(C)C1=O", "note": "[Compound 1430] ([NMeL]I[Sar][Sar][NMePhe(4-Cl)][Sar][Phe(3-I)][Nle][NMeAib][hPhe][NMeD]-Pyrrolidide; lactam N-11)", "IC50": 400}, {"smiles": "CC[C@H](C)[C@@H]1NC(=O)[C@H](CC(C)C)N(C)C(=O)C[C@@H](C)NC(=O)[C@H](C(C)C)N(C)C(=O)C2(CCCC2)NC(=O)[C@@H]2CCCN2C(=O)[C@H](CCc2ccc(C(F)(F)F)c(Cl)c2)NC(=O)CN(C)C(=O)[C@H](Cc2ccccc2F)N(C)C(=O)CN(C)C(=O)CN(C)C1=O", "note": "[Compound 1585] (cyclo([Ac5c][NMeV][d(β3hA)][NMeL]I[Sar][Sar][NMePhe(2-F)][Sar][hPhe(3-Cl-4-CF3)]P))", "IC50": 43}, {"smiles": "CC[C@H](C)[C@@H]1NC(=O)[C@H](CC(C)C)N(C)C(=O)C[C@@H](C)NC(=O)[C@H](C(C)C)N(C)C(=O)C2(CCCC2)NC(=O)[C@@H]2CCCN2C(=O)[C@H](CCc2ccc(C(F)(F)F)c(Cl)c2)NC(=O)CN(C)C(=O)[C@H](CC2CCCCC2)N(C)C(=O)[C@@H]2CCN2C(=O)[C@H](CC2CCCC2)N(C)C1=O", "note": "[Compound 1618] (cyclo([Ac5c][NMeV][d(β3hA)][NMeL]I[NMeAla(cPent)][Aze][NMeCha][Sar][hPhe(3-Cl-4-CF3)]P))", "IC50": 290}, {"smiles": "CC[C@H](C)[C@@H]1NC(=O)[C@H](C)N(C)C(=O)C[C@@H](C)NC(=O)[C@H](C(C)C)N(C)C(=O)C2(CCCC2)NC(=O)[C@@H]2CCCN2C(=O)[C@H](CCc2ccc(C(F)(F)F)c(Cl)c2)NC(=O)[C@@H](C)N(C)C(=O)[C@H](CC2CCCCC2)N(C)C(=O)[C@@H]2CCCN2C(=O)CN(C)C1=O", "note": "[Compound 516] (cyclo([Ac5c][NMeV][d(β3hA)][NMeA]I[Sar]P[NMeCha][dNMeA][hPhe(3-Cl-4-CF3)]P))", "IC50": 62}, {"smiles": "CC[C@H](C)[C@@H]1NC(=O)[C@H](CC(C)C)N(C)C(=O)C[C@@H](C(=O)N2CCCCC2)N(C)C(=O)[C@H](CC(C)C)NC(=O)C(C)(C)N(C)C(=O)[C@H](Cc2ccc(OC)cc2)NC(=O)[C@H](Cc2cccc(I)c2)NC(=O)CN(C)C(=O)[C@H](Cc2ccc(C)cc2)N(C)C(=O)CN(C)C(=O)CN(C)C1=O", "note": "[Compound 247] ([NMeL]I[Sar][Sar][NMePhe(4-Me)][Sar][Phe(3-I)]Y(Me)[NMeAib]L[NMeD]-Piperidide; lactam N-11)", "IC50": 7}, {"smiles": "CC[C@H](C)[C@@H]1NC(=O)[C@H](CC(C)C)N(C)C(=O)C[C@@H](C(=O)N2CCCCC2)N(C)C(=O)[C@H](C(C)C)N(C)C(=O)C2(CCCC2)NC(=O)[C@@H]2CCCN2C(=O)[C@H](CCc2ccc(Cl)cc2)NC(=O)CN(C)C(=O)[C@H](CC2CCCCC2)N(C)C(=O)CN(C)C(=O)[C@@H]2CCN2C1=O", "note": "[Compound 112] ([NMeL]I[Aze][Sar][NMeCha][Sar][hPhe(4-Cl)]P[Ac5c][NMeV][NMeD]-Piperidide; lactam N-11)", "IC50": 73}]}]}
